The text below walks through data of patent US11464854B2, “Methods and compositions relating to adjuvants” (Children's Medical Center Corporation, priority 2017, dated 2022).

The target in one test is T1, human TLR7 (Homo sapiens, UniProt Q9NYK1).
T1 construct: host or cells: HEK293 with NF-kB-responsive SEAP reporter
T1 sequence (Q9NYK1 27-1049): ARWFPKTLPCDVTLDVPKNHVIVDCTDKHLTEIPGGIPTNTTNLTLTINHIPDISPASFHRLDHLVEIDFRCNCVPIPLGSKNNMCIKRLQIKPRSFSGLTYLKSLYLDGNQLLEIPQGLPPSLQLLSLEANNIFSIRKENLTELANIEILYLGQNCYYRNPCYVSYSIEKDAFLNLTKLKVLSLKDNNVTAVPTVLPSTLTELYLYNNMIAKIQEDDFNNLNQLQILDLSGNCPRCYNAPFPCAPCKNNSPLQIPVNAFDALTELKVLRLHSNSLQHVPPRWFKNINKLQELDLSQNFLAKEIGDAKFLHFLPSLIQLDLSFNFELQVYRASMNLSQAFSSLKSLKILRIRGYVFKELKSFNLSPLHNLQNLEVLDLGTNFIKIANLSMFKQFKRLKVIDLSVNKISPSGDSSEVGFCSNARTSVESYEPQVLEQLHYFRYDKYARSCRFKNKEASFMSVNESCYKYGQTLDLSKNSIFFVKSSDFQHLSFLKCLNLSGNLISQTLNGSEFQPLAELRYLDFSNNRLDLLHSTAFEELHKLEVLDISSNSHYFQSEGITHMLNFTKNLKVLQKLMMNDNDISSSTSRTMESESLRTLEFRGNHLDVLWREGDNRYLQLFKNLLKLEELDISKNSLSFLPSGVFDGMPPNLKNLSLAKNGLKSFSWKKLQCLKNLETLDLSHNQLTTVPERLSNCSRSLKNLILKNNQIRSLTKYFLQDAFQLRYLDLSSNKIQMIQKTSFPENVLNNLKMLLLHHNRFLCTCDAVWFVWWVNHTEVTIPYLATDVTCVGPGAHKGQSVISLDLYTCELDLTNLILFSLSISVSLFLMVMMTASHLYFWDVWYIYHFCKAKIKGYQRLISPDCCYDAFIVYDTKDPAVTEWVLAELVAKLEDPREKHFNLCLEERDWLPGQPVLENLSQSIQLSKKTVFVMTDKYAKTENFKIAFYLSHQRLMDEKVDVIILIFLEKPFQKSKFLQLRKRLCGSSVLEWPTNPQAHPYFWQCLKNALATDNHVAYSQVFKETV
Particulars: HEK293 cells stably expressing human TLR7 (ref. 24); cited from earlier work.

Test [1] deals with newborn cord blood mononuclear cells (CBMCs). In words: Human newborn Th1 polarization assay. The class given is cell-based. Particulars: 10 μM, with αCD3, 96 hrs. On the procedure:
Newborn cord blood mononuclear cells (CBMCs), a mixed mononuclear cell culture which is a largely naïve newborn T cell population, were stimulated with the TLR7/8 agonists in the presence of the polyclonal T cell activator αCD3 for 96 hours. T cell polarization was evaluated by IFNγ levels measured in cell-free supernatants by ELISA.

Another test has as its target T2, human TLR8 (Homo sapiens, UniProt Q9NR97).
T2 construct: host or cells: HEK293 with NF-kB-responsive SEAP reporter
T2 sequence (Q9NR97 27-1041): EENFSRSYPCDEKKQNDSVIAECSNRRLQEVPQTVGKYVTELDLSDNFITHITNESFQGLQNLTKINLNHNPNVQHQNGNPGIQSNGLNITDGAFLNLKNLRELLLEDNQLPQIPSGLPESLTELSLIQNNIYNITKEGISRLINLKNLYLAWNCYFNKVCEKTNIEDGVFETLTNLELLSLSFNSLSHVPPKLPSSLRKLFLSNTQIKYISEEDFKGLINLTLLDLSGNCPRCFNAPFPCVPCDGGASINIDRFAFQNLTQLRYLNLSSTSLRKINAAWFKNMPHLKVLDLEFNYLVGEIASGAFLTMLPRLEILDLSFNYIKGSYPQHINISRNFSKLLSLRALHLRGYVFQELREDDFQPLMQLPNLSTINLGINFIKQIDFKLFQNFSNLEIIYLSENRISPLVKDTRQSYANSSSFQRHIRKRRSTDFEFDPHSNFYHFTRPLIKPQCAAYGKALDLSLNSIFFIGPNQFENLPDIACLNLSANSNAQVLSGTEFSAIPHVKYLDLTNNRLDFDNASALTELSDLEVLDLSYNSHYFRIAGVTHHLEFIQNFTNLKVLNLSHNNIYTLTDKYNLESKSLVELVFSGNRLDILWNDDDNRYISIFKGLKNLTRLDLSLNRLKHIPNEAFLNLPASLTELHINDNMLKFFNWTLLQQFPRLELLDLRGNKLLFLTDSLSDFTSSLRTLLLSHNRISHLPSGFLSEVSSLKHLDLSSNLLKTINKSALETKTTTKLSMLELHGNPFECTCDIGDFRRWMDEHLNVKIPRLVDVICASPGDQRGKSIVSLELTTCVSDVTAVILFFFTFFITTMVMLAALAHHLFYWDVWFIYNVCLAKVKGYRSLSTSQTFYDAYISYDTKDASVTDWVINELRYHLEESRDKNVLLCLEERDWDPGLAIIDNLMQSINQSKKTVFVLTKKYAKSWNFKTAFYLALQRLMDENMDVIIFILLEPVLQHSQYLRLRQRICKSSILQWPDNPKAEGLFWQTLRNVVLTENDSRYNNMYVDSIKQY
In words: HEK293 NF-kB SEAP reporter assay, human TLR8. It counts as cell-based. On the procedure: Human embryonic kidney (HEK)293 cells expressing human TLR7 or TLR8 with an NF-κB-responsive secreted embryonic alkaline phosphatase (SEAP) reporter gene were obtained from Novus Biologicals (Littleton, Colo.) and Invivogen (San Diego, Calif.), respectively. Cells were maintained in DMEM with 10% HI-FBS and selection antibiotics per the manufacturer's instructions. Cells were plated at 5×10^5 cells/96-well and stimulated with indicated agonist(s) for 24 h. Supernatants were harvested and analyzed for NF-κB/SEAP activation using the QuantiBlue™ kit (Invivogen). Values are expressed as fold change in OD650 over vehicle-only treated samples.

Regarding `CCCCCCCCCCCCCCCCCC(=O)NCCCCOn1c(CCCC)nc2c(N)nc3ccccc3c21` [3M-052, N-[4-[(4-amino-2-butyl-1H-imidazo[4,5-c]quinolin-1-yl)oxy]butyl]octadecanamide], the “agonist activity, human TLR7” value on human TLR7 was “Dual agonist activity”.

On to `CCCCc1nc2c(N)nc3ccccc3c2n1CCO` [CRX-649], for which, in test [1], the “IFNγ production by newborn T cells” value is “significantly enhanced ability to induce IFNγ production”. Further, the “TLR7 vs. TLR8 selectivity” value on human TLR8 (HEK293 assay) is on record as “preference for TLR8”. In addition, the “potency for hTLR8” value at human TLR8 (among six IMQ and OA compounds, SEAP fold change) was “greatest potency”.
